This is an account of results in the NIST ThermoML archive (doi:10.1016/j.jct.2013.08.021).

Numbers after ± are expanded uncertainties.

A short description of data set [1]: refractive index (Na D-line) (dimensionless). To be noted: 101.33 kPa, Liquid, Standard Abbe refractometry.
For data set [2] the following is noted: 101 kPa, Liquid; for speed of sound: Sing-around technique in a fixed-path interferometer; for mass density: Vibrating tube method.
The nature of data set [3]: refractive index (Na D-line) (dimensionless); xn = mol fraction of the nth substance listed. To be noted: 101 kPa, Liquid, Standard Abbe refractometry, x1 = 1.
A short description of data set [4]: xn = mol fraction of the nth substance listed. To be noted: 101 kPa, Liquid, x1 = 1; for speed of sound: Sing-around technique in a fixed-path interferometer; for mass density: Vibrating tube method.

`CCO` [ethanol]: the refractive index was 1.35932 ± 0.00031 in data set [1] (298.15 K), 1.35728 ± 0.00031 in data set [1] (303.15 K) and 1.35519 ± 0.00031 in data set [1] (308.15 K). The speed of sound is given as 1143.9 ± 1.1 m/s in data set [2] (298.15 K), 1128 ± 1.1 m/s in data set [2] (303.15 K) and 1111.8 ± 1.1 m/s in data set [2] (308.15 K). In addition, the mass density in data set [2] (298.15 K) is reported as 785.48 ± 0.15 kg/m3; in data set [2] (303.15 K), 781.16 ± 0.15 kg/m3; in data set [2] (308.15 K), 776.81 ± 0.15 kg/m3.

Take `CCCO` [propan-1-ol]: the figures for the refractive index in data set [1] (298.15 K), in data set [1] (303.15 K) and in data set [1] (308.15 K) were 1.38309 ± 0.00031, 1.38106 ± 0.00031 and 1.37894 ± 0.00031, respectively. Also, the speed of sound is 1206.6 ± 1.2 m/s in data set [2] (298.15 K), 1189.5 ± 1.2 m/s in data set [2] (303.15 K) and 1172.4 ± 1.2 m/s in data set [2] (308.15 K). Besides, the figures for the mass density in data set [2] (298.15 K), in data set [2] (303.15 K) and in data set [2] (308.15 K) were 799.87 ± 0.14 kg/m3, 795.94 ± 0.14 kg/m3 and 791.78 ± 0.15 kg/m3, respectively.

Take `CCCO` [propan-1-ol] + CCC[N+]1(C)CCCC1.O=S(=O)([N-]S(=O)(=O)C(F)(F)F)C(F)(F)F: the refractive index in data set [3] (298.15 K) amounted to 1.38309 ± 0.00031; in data set [3] (303.15 K), 1.38106 ± 0.00031; in data set [3] (308.15 K), 1.37894 ± 0.00031. Further, the results for the speed of sound in data set [4] (298.15 K), in data set [4] (303.15 K) and in data set [4] (308.15 K) were 1206.6 ± 1.2 m/s, 1189.5 ± 1.2 m/s and 1172.4 ± 1.2 m/s, respectively. In addition, the mass density stood at 799.87 ± 0.14 kg/m3 in data set [4] (298.15 K), 795.94 ± 0.14 kg/m3 in data set [4] (303.15 K) and 791.78 ± 0.15 kg/m3 in data set [4] (308.15 K).

As to `CCO` [ethanol] + CCC[N+]1(C)CCCC1.O=S(=O)([N-]S(=O)(=O)C(F)(F)F)C(F)(F)F, the figures for the refractive index in data set [3] (298.15 K), in data set [3] (303.15 K) and in data set [3] (308.15 K) were 1.35932 ± 0.00031, 1.35728 ± 0.00031 and 1.35519 ± 0.00031, respectively. Moreover, the results for the speed of sound in data set [4] (298.15 K), in data set [4] (303.15 K) and in data set [4] (308.15 K) were 1143.9 ± 1.1 m/s, 1128 ± 1.1 m/s and 1111.8 ± 1.1 m/s, respectively. The mass density was 785.48 ± 0.15 kg/m3 in data set [4] (298.15 K), 781.16 ± 0.15 kg/m3 in data set [4] (303.15 K) and 776.81 ± 0.15 kg/m3 in data set [4] (308.15 K).

Take `CO` [methanol]: the figures for the refractive index in data set [1] (298.15 K), in data set [1] (303.15 K) and in data set [1] (308.15 K) were 1.3265 ± 0.00031, 1.32452 ± 0.00031 and 1.32254 ± 0.00031, respectively. The speed of sound in data set [2] (298.15 K) is 1102.7 ± 1.1 m/s; in data set [2] (303.15 K), 1086.3 ± 1.1 m/s; in data set [2] (308.15 K) it was 1070.1 ± 1.1 m/s. Moreover, the mass density in data set [2] (298.15 K) worked out at 786.66 ± 0.15 kg/m3; in data set [2] (303.15 K), 781.95 ± 0.15 kg/m3; in data set [2] (308.15 K), 777.2 ± 0.15 kg/m3.

As to `CO` [methanol] + CCC[N+]1(C)CCCC1.O=S(=O)([N-]S(=O)(=O)C(F)(F)F)C(F)(F)F, the refractive index in data set [3] (298.15 K) came out at 1.3265 ± 0.00031; in data set [3] (303.15 K), 1.32452 ± 0.00031; in data set [3] (308.15 K), 1.32254 ± 0.00031. Also, the speed of sound in data set [4] (298.15 K) stood at 1102.7 ± 1.1 m/s; in data set [4] (303.15 K), 1086.3 ± 1.1 m/s; in data set [4] (308.15 K) it was 1070.1 ± 1.1 m/s. The mass density in data set [4] (298.15 K) turned out to be 786.66 ± 0.15 kg/m3; in data set [4] (303.15 K), 781.95 ± 0.15 kg/m3; in data set [4] (308.15 K), 777.2 ± 0.15 kg/m3.
